Laboratory results as given in patent US9645128B2, “Substituted imidazo[1,2-A]pyrazines for measuring a transcription activity” (JNC CORPORATION, priority 2009, dated 2017).

Assays:
recombinant apoaequorin [1] = target: T1, recombinant apoaequorin (Aequorea victoria, UniProt P07164); experiment: Production of semi-synthetic aequorins and measurement of luminescence activity (Imax, luminescence capacity); conditions: regeneration 0.5 to 18 hours at 4° C.
Protocol: In order to confirm the regeneration time and regeneration efficiency from apoaequorin to the semi-synthetic aequorin, the luminescence activity was assayed at the respective points of the regeneration process (at the respective points of 0.5, 1, 1.5, 2, 3 and 18 hours from the start of regeneration).
Specifically, the luminescence activity described above was measured as follows. The luminescence reaction was started by adding 100 μl of 50 mM Tris-HCl (pH 7.6) containing 50 mM calcium chloride solution to 2 μl of a solution of the semi-synthetic aequorin at each regeneration process. The luminescence activity was measured for 10 seconds with a luminometer Luminescencer-PSN AB2200 (manufactured by Atto Co., Ltd.). The measured values were represented as the maximum intensity (Imax) of luminescence. The emission for 60 seconds was integrated, which was made a luminescence capacity.

recombinant apoaequorin [2] = target: T1, recombinant apoaequorin; experiment: Calcium standard curve with semi-synthetic aequorins; type: biochemical; design: purchased Chisso Corporation; conditions: Imax versus 10^-3 M to 10^-8 M calcium
Protocol: The dilution series was prepared by the serial process above to prepare standard calcium solution of 10^−3 M to 10^−8 M.
The semi-synthetic aequorin obtained was concentrated using Amicon Ultra-4 (manufactured by Millipore, molecular weight cut off, 10.000).
This semi-synthetic aequorin solution (2.5 mg/ml) was diluted with 20 mM Tris-HCl (pH 7.6) containing 0.1% BSA (manufactured by Sigma), 0.01 mM EDTA and 150 mM NaCl.
The calcium standard solution prepared as described above was dispensed into a 96-well microplate (Nunc #236108) in 50 μl/well, and the semi-synthetic aequorin solution diluted was injected in […]. The luminescence intensity was measured for 60 seconds using a luminescence plate reader Centro LB960 (manufactured by Berthold) and expressed in terms of the maximum luminescence intensity (Imax). The luminescence intensity was measured for each semi-synthetic aequorin in the same fashion. Based on the maximum luminescence intensity (Imax) obtained, the calcium standard curve for each semi-synthetic aequorin was prepared.

[3] = target: T2, 19 kDa protein of Oplophorus luciferase (Oplophorus gracilirostris, UniProt Q9GV45); experiment: Substrate specificity, luminescence activity and emission spectra of the 19 kDa protein of Oplophorus luciferase; type: biochemical, Oplophorus gracilorostris; conditions: for Maximum emission wavelength λmax (nm) / Luminescence capacity 10 secs. (%) / Luminescence activity Imax (%) / Luminescence activity and/or capacity compared to known h-CTZ: Oplophorus luciferase; for Maximum emission wavelength λmax (nm): 22 to 25° C.; for Luminescence capacity 10 secs. (%): emission integrated for 10 seconds; for Luminescence capacity 10 secs. (%) / Luminescence activity Imax (%): coelenterazine = 100.0; for Quality as luminescence substrate for Oplophorus luciferase / Luminescence activity and/or capacity compared to known h-CTZ: TABLE 2
T2 construct: made in house

recombinant apoaequorin [4] = target: T1, recombinant apoaequorin; experiment: Emission spectra of semi-synthetic aequorins by addition of calcium ions; conditions: for Emission spectra of semi-synthetic aequorins compared with known analogs (FIG. 3): compared to h-CTZ and i-CTZ; for Maximum emission wavelength λmax (nm): semi-synthetic aequorin, 22 to 25° C.
Protocol: In a quartz cell with an optical path length of 10 mm, 1 ml of 50 mM Tris-HCl (pH 7.6) containing 1 mM EDTA and 100 μl (100 μg protein) of a solution of the regenerated semi-synthetic aequorin were charged and they were mixed. Subsequently, 100 μl of 50 mM Tris-HCl (pH 7.6) containing 0.1 ml of 10 mM calcium chloride solution was added to the mixture to trigger the luminescence reaction. The spectra were measured on a spectrofluorimeter (FP-6500, manufactured by JASCO Corporation) with the excitation source turned off. The measurement conditions used were as follows: band width, 20 nm; response, 0.5 second and scan speed, 2000 nm/min at 22 to 25° C.

recombinant apoaequorin [5] = target: T1, recombinant apoaequorin; experiment: Luminescence patterns and half decay time of semi-synthetic aequorins; type: biochemical; design: purchased Chisso Corporation; conditions: semi-synthetic aequorin; time to reach half of the maximum luminescence intensity
Protocol: The dilution was dispensed into a 96-well microplate (Nunc #236108) in 5 μl/well. […] The luminescence patterns for 60 seconds were measured to determine the half decay time of luminescence (time period to reach the half of the maximum luminescence intensity).

Renilla luciferase = target: T3, Renilla luciferase (Renilla reniformis, UniProt P27652); experiment: Substrate specificity, luminescence activity and emission spectra of Renilla luciferase; type: biochemical; conditions: for Maximum emission wavelength λmax (nm) / Luminescence activity Imax (%) / Luminescence capacity 10 secs. (%): Renilla luciferase; for Maximum emission wavelength λmax (nm): 22 to 25° C.; for Luminescence activity Imax (%) / Luminescence capacity 10 secs. (%): coelenterazine = 100.0; for Ability to act as substrate for Renilla luciferase: TABLE 4
T3 construct: made in house
T3 sequence (P27652 1-311): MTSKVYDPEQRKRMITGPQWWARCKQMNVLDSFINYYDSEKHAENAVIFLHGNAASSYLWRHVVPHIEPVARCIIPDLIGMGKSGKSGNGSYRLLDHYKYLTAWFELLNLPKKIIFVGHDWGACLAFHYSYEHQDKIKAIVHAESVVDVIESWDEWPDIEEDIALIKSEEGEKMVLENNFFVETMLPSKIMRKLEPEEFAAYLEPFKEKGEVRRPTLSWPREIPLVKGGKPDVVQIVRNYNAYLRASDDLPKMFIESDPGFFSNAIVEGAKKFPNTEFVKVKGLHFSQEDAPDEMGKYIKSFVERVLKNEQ
Source text: Res. Commun. (1997) 233: 349-353, which was provided for use.

Gaussia luciferase = experiment: Substrate specificity, luminescence activity and emission spectra of Gaussia luciferase; conditions: for Luminescence activity Imax (%) / Luminescence capacity 10 secs. (%): Gaussia luciferase, coelenterazine = 100.0
Protocol: The luminescence activity was measured for 10 seconds using a luminometer Luminescencer-PSN AB2200 (manufactured by Atto Co., Ltd.). The luminescence activity was measured 3 times and expressed as the maximum intensity (Imax) of luminescence.

T1 sequence (P07164 other isoform, or with tags, fused parts or gaps with the stated changes): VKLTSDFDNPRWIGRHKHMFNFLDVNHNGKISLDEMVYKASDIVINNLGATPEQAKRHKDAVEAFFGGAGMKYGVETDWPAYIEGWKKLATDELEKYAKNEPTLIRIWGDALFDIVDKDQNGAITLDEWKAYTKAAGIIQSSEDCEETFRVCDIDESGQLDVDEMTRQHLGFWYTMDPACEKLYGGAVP
T2 sequence (Q9GV45 28-196): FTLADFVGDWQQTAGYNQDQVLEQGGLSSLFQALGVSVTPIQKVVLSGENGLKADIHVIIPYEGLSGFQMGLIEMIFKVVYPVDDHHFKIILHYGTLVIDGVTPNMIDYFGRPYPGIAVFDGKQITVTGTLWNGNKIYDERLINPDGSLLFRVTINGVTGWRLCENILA

COc1ccc(Cc2nc3c(Cc4ccccc4)[nH]c(-c4ccc(O)cc4)cn-3c2=O)cc1 [meo-CTZ, meo-coelenterazine]
melting point: 137 to 139 °C (dec.)
Ability to act as luminescence substrate for semi-synthetic aequorins (FIG. 1) (recombinant apoaequorin [1]): can be luminescence substrates for semi-synthetic aequorins
Calcium standard curve with semi-synthetic aequorin (FIG. 4) (recombinant apoaequorin [2]): calcium standard curves can be prepared
Maximum emission wavelength λmax (nm) [3]: 454.5 nm
Luminescence capacity 10 secs. (%) [3]: 108.6%
Luminescence activity Imax (%) [3]: 68.1%
Quality as luminescence substrate for Oplophorus luciferase [3]: relatively good luminescence substrates
Emission spectra of semi-synthetic aequorins compared with known analogs (FIG. 3) (recombinant apoaequorin [4]): exhibit different emission spectra from those of known coelenterazine analogs
Maximum emission wavelength λmax (nm) (recombinant apoaequorin [4]): 469.0 nm
Half decay time sec. (recombinant apoaequorin [5]): 1.63 s
Maximum emission wavelength λmax (nm) (Renilla luciferase): 472.5 nm
Luminescence activity Imax (%) (Renilla luciferase): 8.0%
Luminescence capacity 10 secs. (%) (Renilla luciferase): 8.6%
Ability to act as substrate for Renilla luciferase (Renilla luciferase): can be substrates for Renilla luciferase
Luminescence activity Imax (%) (Gaussia luciferase): 13.6%
Luminescence capacity 10 secs. (%) (Gaussia luciferase): 15.5%

COc1cccc(Cc2nc3c(Cc4ccccc4)[nH]c(-c4ccc(O)cc4)cn-3c2=O)c1 [3meo-CTZ, 3meo-coelenterazine]
melting point: 136 to 140 °C (dec.)
Ability to act as luminescence substrate for semi-synthetic aequorins (FIG. 1) (recombinant apoaequorin [1]): can be luminescence substrates for semi-synthetic aequorins
Calcium standard curve with semi-synthetic aequorin (FIG. 4) (recombinant apoaequorin [2]): calcium standard curves can be prepared
Maximum emission wavelength λmax (nm) [3]: 455.5 nm
Luminescence activity and/or capacity compared to known h-CTZ [3]: high luminescence activity and/or luminescence capacity
Luminescence capacity 10 secs. (%) [3]: 204.7%
Luminescence activity Imax (%) [3]: 189.1%
Quality as luminescence substrate for Oplophorus luciferase [3]: relatively good luminescence substrates
Emission spectra of semi-synthetic aequorins compared with known analogs (FIG. 3) (recombinant apoaequorin [4]): exhibit different emission spectra from those of known coelenterazine analogs
Maximum emission wavelength λmax (nm) (recombinant apoaequorin [4]): 466.0 nm
Half decay time sec. (recombinant apoaequorin [5]): 0.52 s
Maximum emission wavelength λmax (nm) (Renilla luciferase): 473.5 nm
Luminescence activity Imax (%) (Renilla luciferase): 26.0%
Luminescence capacity 10 secs. (%) (Renilla luciferase): 31.6%
Ability to act as substrate for Renilla luciferase (Renilla luciferase): can be substrates for Renilla luciferase
Luminescence activity Imax (%) (Gaussia luciferase): 3.8%
Luminescence capacity 10 secs. (%) (Gaussia luciferase): 3.1%

O=c1c(Cc2cccc(O)c2)nc2c(Cc3ccccc3)[nH]c(-c3ccc(O)cc3)cn1-2 [3iso-CTZ, 3-isocoelenterazine]
melting point: 160 to 162 °C (dec.)
Ability to act as luminescence substrate for semi-synthetic aequorins (FIG. 1) (recombinant apoaequorin [1]): can be luminescence substrates for semi-synthetic aequorins
Calcium standard curve with semi-synthetic aequorin (FIG. 4) (recombinant apoaequorin [2]): calcium standard curves can be prepared
Maximum emission wavelength λmax (nm) [3]: 458.0 nm
Luminescence activity and/or capacity compared to known h-CTZ [3]: high luminescence activity and/or luminescence capacity
Luminescence capacity 10 secs. (%) [3]: 71.8%
Luminescence activity Imax (%) [3]: 78.2%
Quality as luminescence substrate for Oplophorus luciferase [3]: relatively good luminescence substrates
Emission spectra of semi-synthetic aequorins compared with known analogs (FIG. 3) (recombinant apoaequorin [4]): exhibit different emission spectra from those of known coelenterazine analogs
Maximum emission wavelength λmax (nm) (recombinant apoaequorin [4]): 464.0 nm
Half decay time sec. (recombinant apoaequorin [5]): 0.24 s
Maximum emission wavelength λmax (nm) (Renilla luciferase): 472.0 nm
Luminescence activity Imax (%) (Renilla luciferase): 25.7%
Luminescence capacity 10 secs. (%) (Renilla luciferase): 27.5%
Ability to act as substrate for Renilla luciferase (Renilla luciferase): can be substrates for Renilla luciferase
Luminescence activity Imax (%) (Gaussia luciferase): 14.3%
Luminescence capacity 10 secs. (%) (Gaussia luciferase): 7.4%
Quality as luminescence substrate for Gaussia luciferase (Gaussia luciferase; TABLE 3): effective luminescence substrates
